Assay results from patent US20020137154A1, “Methods for improving cell growth and alcohol production during fermentation” (priority 2000, published 2002).
Like-named read-outs stand apart in the source and are kept apart here.

Tested on: recombinant Escherichia coli KO11
Experiment: Batch fermentation of E. coli KO11 in 1% CSL medium and xylose with nutrient additives: ethanol production and cell growth
Type: cell-based
Details: for Ethanol Production Maximum / Ethanol yield / Initial Growth (OD @ 24 h) OD / Maximum Cell Density OD / Maximum Cell Density Time / Volumetric Productivity Average / Volumetric Productivity Maximum: 1% CSL+xylose; for activity at 250 µg/mL / activity at 100 µg/mL / activity at 500 µg/mL: Escherichia coli
[1] = 1% CSL and xylose, 0.25 g/L at the start and after 12 hours
[2] = 3 × 0.25 g/L (start, 12 h, 24 h)

SMILES: CC=O [Acetaldehyde, acetaldehyde]
- ethanol production as compared to the control [1]: highest amount of ethanol production
- initial growth and maximum cell density as compared to a control [1]: greatest initial growth and maximum cell density
- Ethanol Production Maximum (0.1 g/L at start): 29.51 g/L
- Ethanol yield (0.1 g/L at start): 0.304 grams of ethanol/grams of added sugar
- Initial Growth (OD @ 24 h) OD (0.1 g/L at start): 2.25 OD
- Maximum Cell Density OD (0.1 g/L at start): 2.56 OD
- Maximum Cell Density Time (0.1 g/L at start): 48 h
- Volumetric Productivity Average (0.1 g/L at start): 0.307 grams ethanol/(liter)(hour)
- Volumetric Productivity Maximum (0.1 g/L at start): 0.389 grams ethanol/(liter)(hour)
- Ethanol Production Maximum (0.25 g/L at start): 34.45 g/L
- Ethanol yield (0.25 g/L at start): 0.355 grams of ethanol/grams of added sugar
- Initial Growth (OD @ 24 h) OD (0.25 g/L at start): 2.48 OD
- Maximum Cell Density OD (0.25 g/L at start): 3.12 OD
- Maximum Cell Density Time (0.25 g/L at start): 96 h
- Volumetric Productivity Average (0.25 g/L at start): 0.359 grams ethanol/(liter)(hour)
- Volumetric Productivity Maximum (0.25 g/L at start): 0.425 grams ethanol/(liter)(hour)
- Ethanol Production Maximum (0.5 g/L at start): 42.66 g/L
- Ethanol yield (0.5 g/L at start): 0.439 grams of ethanol/grams of added sugar
- Initial Growth (OD @ 24 h) OD (0.5 g/L at start): 2.55 OD
- Maximum Cell Density OD (0.5 g/L at start): 4.31 OD
- Maximum Cell Density Time (0.5 g/L at start): 96 h
- Volumetric Productivity Average (0.5 g/L at start): 0.444 grams ethanol/(liter)(hour)
- Volumetric Productivity Maximum (0.5 g/L at start): 0.623 grams ethanol/(liter)(hour)
- Ethanol Production Maximum (2 × 0.25 g/L (start, 12 h)): 45.57 g/L
- Ethanol yield (2 × 0.25 g/L (start, 12 h)): 0.469 grams of ethanol/grams of added sugar
- Initial Growth (OD @ 24 h) OD (2 × 0.25 g/L (start, 12 h)): 3.36 OD
- Maximum Cell Density OD (2 × 0.25 g/L (start, 12 h)): 4.67 OD
- Maximum Cell Density Time (2 × 0.25 g/L (start, 12 h)): 96 h
- Volumetric Productivity Average (2 × 0.25 g/L (start, 12 h)): 0.475 grams ethanol/(liter)(hour)
- Volumetric Productivity Maximum (2 × 0.25 g/L (start, 12 h)): 0.740 grams ethanol/(liter)(hour)
- Ethanol Production Maximum [2]: 38.21 g/L
- Ethanol yield [2]: 0.393 grams of ethanol/grams of added sugar
- Initial Growth (OD @ 24 h) OD [2]: 3.04 OD
- Maximum Cell Density OD [2]: 4.02 OD
- Maximum Cell Density Time [2]: 48 h
- Volumetric Productivity Average [2]: 0.398 grams ethanol/(liter)(hour)
- Volumetric Productivity Maximum [2]: 0.540 grams ethanol/(liter)(hour)
- activity at 250 µg/mL (12 h, read-out: Ethanol Production Maximum % Control, 1% CSL+xylose, 2 × 0.25 g/L (start, 12 h)): 152%
- activity at 250 µg/mL (12 h, read-out: Maximum Cell Density % Control, 1% CSL+xylose, 2 × 0.25 g/L (start, 12 h)): 186%
- activity at 250 µg/mL (12 h, read-out: Volumetric Productivity Average % Control, 1% CSL+xylose, 2 × 0.25 g/L (start, 12 h)): 152%
- activity at 250 µg/mL (12 h, read-out: Volumetric Productivity Maximum % Control, 1% CSL+xylose, 2 × 0.25 g/L (start, 12 h)): 201%
- activity at 100 µg/mL (24 h, read-out: Initial Growth (OD @ 24 h) % Control, 1% CSL+xylose, 0.1 g/L at start): 110%
- activity at 250 µg/mL (24 h, read-out: Initial Growth (OD @ 24 h) % Control, 1% CSL+xylose, 0.25 g/L at start): 121%
- activity at 500 µg/mL (24 h, read-out: Initial Growth (OD @ 24 h) % Control, 1% CSL+xylose, 0.5 g/L at start): 125%
- activity at 250 µg/mL (24 h, read-out: Initial Growth (OD @ 24 h) % Control, 1% CSL+xylose, 2 × 0.25 g/L (start, 12 h)): 165%
- activity at 250 µg/mL (24 h, read-out: Initial Growth (OD @ 24 h) % Control, 1% CSL+xylose, 3 × 0.25 g/L (start, 12 h, 24 h)): 149%
- activity at 100 µg/mL (read-out: Ethanol Production Maximum % Control, 1% CSL+xylose, 0.1 g/L at start): 98.1%
- activity at 250 µg/mL (read-out: Ethanol Production Maximum % Control, 1% CSL+xylose, 0.25 g/L at start): 115%
- activity at 500 µg/mL (read-out: Ethanol Production Maximum % Control, 1% CSL+xylose, 0.5 g/L at start): 142%
- activity at 250 µg/mL (read-out: Ethanol Production Maximum % Control, 1% CSL+xylose, 3 × 0.25 g/L (start, 12 h, 24 h)): 127%
- activity at 100 µg/mL (read-out: Maximum Cell Density % Control, 1% CSL+xylose, 0.1 g/L at start): 102%
- activity at 250 µg/mL (read-out: Maximum Cell Density % Control, 1% CSL+xylose, 0.25 g/L at start): 124%
- activity at 500 µg/mL (read-out: Maximum Cell Density % Control, 1% CSL+xylose, 0.5 g/L at start): 171%
- activity at 250 µg/mL (read-out: Maximum Cell Density % Control, 1% CSL+xylose, 3 × 0.25 g/L (start, 12 h, 24 h)): 160%
- activity at 100 µg/mL (read-out: Volumetric Productivity Average % Control, 1% CSL+xylose, 0.1 g/L at start): 98.1%
- activity at 250 µg/mL (read-out: Volumetric Productivity Average % Control, 1% CSL+xylose, 0.25 g/L at start): 115%
- activity at 500 µg/mL (read-out: Volumetric Productivity Average % Control, 1% CSL+xylose, 0.5 g/L at start): 142%
- activity at 250 µg/mL (read-out: Volumetric Productivity Average % Control, 1% CSL+xylose, 3 × 0.25 g/L (start, 12 h, 24 h)): 127%
- activity at 100 µg/mL (read-out: Volumetric Productivity Maximum % Control, 1% CSL+xylose, 0.1 g/L at start): 106%
- activity at 250 µg/mL (read-out: Volumetric Productivity Maximum % Control, 1% CSL+xylose, 0.25 g/L at start): 115%
- activity at 500 µg/mL (read-out: Volumetric Productivity Maximum % Control, 1% CSL+xylose, 0.5 g/L at start): 169%
- activity at 250 µg/mL (read-out: Volumetric Productivity Maximum % Control, 1% CSL+xylose, 3 × 0.25 g/L (start, 12 h, 24 h)): 147%
